According to the NIST ThermoML archive (doi:10.1021/acs.jced.6b00192):
± gives the expanded uncertainty stated by the source.

Settings: Liquid, Vibrating tube method

CCCCOCCOCCO [3,6-dioxa-1-decanol]
mass density [kg/m3]
Settings	283.15 K	293.15 K	303.15 K	313.15 K	323.15 K	333.15 K	343.15 K	353.15 K	363.15 K
100 kPa	960.4 ± 1	952.4 ± 1	943.8 ± 0.9	935.5 ± 0.9	927 ± 0.9	917.8 ± 0.9	909.1 ± 0.9	901.1 ± 0.9	892.6 ± 0.9
1000 kPa	961.3 ± 1	952.9 ± 1	944.2 ± 1	935.9 ± 0.9	927.3 ± 0.9	918.7 ± 0.9	910.5 ± 0.9	902.1 ± 0.9	893.2 ± 0.9
3000 kPa	962.6 ± 1	954.3 ± 1	946 ± 1	937.2 ± 0.9	928.8 ± 0.9	920.7 ± 0.9	912.35 ± 0.92	903.9 ± 0.9	894.9 ± 0.9
5000 kPa	963.4 ± 1	955.2 ± 1	947 ± 1	938.8 ± 0.9	930.3 ± 0.9	922.2 ± 0.9	913.6 ± 0.9	905.3 ± 0.9	896.7 ± 0.9
10000 kPa	966.5 ± 1	958.4 ± 1	950.3 ± 1	942 ± 1	933.8 ± 0.9	925.7 ± 0.9	917.6 ± 0.9	909.3 ± 0.9	900.4 ± 0.9
15000 kPa	969.4 ± 1	961.2 ± 1	953 ± 1	945.2 ± 1	937.2 ± 0.9	929.2 ± 0.9	921.3 ± 0.9	913.1 ± 0.9	904.8 ± 0.9
20000 kPa	971.9 ± 1	964 ± 1	956 ± 1	948.4 ± 1	940.4 ± 1	932.5 ± 0.9	924.7 ± 0.9	916.8 ± 0.9	908.5 ± 0.9
25000 kPa	974.5 ± 1	966.9 ± 1	959.1 ± 1	951.2 ± 1	943.5 ± 1	935.5 ± 0.9	928.1 ± 0.9	920.3 ± 0.9	912.1 ± 0.9
30000 kPa	977.1 ± 1	969.6 ± 1	962 ± 1	953.8 ± 1	946.4 ± 1	939 ± 1	931.3 ± 0.9	923.7 ± 0.9	915.7 ± 0.9
35000 kPa	979.1 ± 1	972 ± 1	964.7 ± 1	956.9 ± 1	949.5 ± 1	942 ± 1	934.4 ± 1	927.1 ± 0.9	919.2 ± 0.9
40000 kPa	981.4 ± 1	974.4 ± 1	967.1 ± 1	959.7 ± 1	952.5 ± 1	945.2 ± 1	937.3 ± 1	930.3 ± 1	922.7 ± 0.9
50000 kPa	986.9 ± 1	979.7 ± 1	972.2 ± 1	965 ± 1	958.2 ± 1	950.6 ± 1	943.2 ± 1	936.3 ± 1	929.1 ± 1
60000 kPa	990.4 ± 1	983.9 ± 1	977.1 ± 1	969.7 ± 1	963.4 ± 1	956 ± 1	948.8 ± 1	942.2 ± 1	935.2 ± 1

CCCCOCCOCCOCCCC [5,8,11-trioxapentadecane]
mass density [kg/m3]
Settings	283.15 K	293.15 K	303.15 K	313.15 K	323.15 K	333.15 K	343.15 K	353.15 K	363.15 K
100 kPa	891.3 ± 0.9	882.9 ± 0.9	874.5 ± 0.9	866.1 ± 0.9	857.2 ± 0.9	849.1 ± 0.9	840.4 ± 0.9	832.4 ± 0.9	823.4 ± 0.9
1000 kPa	891.8 ± 0.9	883.1 ± 0.9	875.1 ± 0.9	866.41 ± 0.89	858.2 ± 0.9	850 ± 0.9	841.7 ± 0.9	833 ± 0.9	824.8 ± 0.9
3000 kPa	893.2 ± 0.9	884.8 ± 0.9	876.6 ± 0.9	868.1 ± 0.9	859.8 ± 0.9	851.6 ± 0.9	843.5 ± 0.9	835.1 ± 0.9	827.1 ± 0.9
5000 kPa	894.3 ± 0.9	885.9 ± 0.9	878.2 ± 0.9	869.8 ± 0.9	861.5 ± 0.9	853.3 ± 0.9	845.5 ± 0.9	836.7 ± 0.9	828.7 ± 0.9
10000 kPa	897.7 ± 0.9	889.6 ± 0.9	881.8 ± 0.9	873.5 ± 0.9	865.4 ± 0.9	857.5 ± 0.9	849.8 ± 0.9	841.4 ± 0.9	833.5 ± 0.9
15000 kPa	900.9 ± 0.9	892.9 ± 0.9	885.2 ± 0.9	877.2 ± 0.9	869.2 ± 0.9	861.4 ± 0.9	853.7 ± 0.9	846 ± 0.9	838.4 ± 0.9
20000 kPa	904.3 ± 0.9	896.1 ± 0.9	888.42 ± 0.93	880.7 ± 0.9	873.1 ± 0.9	865.4 ± 0.9	857.9 ± 0.9	850.3 ± 0.9	842.8 ± 0.9
25000 kPa	906.9 ± 1	899.3 ± 0.9	891.8 ± 0.9	884.1 ± 0.9	876.5 ± 0.9	869 ± 0.9	861.6 ± 0.9	854 ± 0.9	846.8 ± 0.9
30000 kPa	909.9 ± 1	902.3 ± 1	894.9 ± 1	887.1 ± 0.9	879.8 ± 0.9	872.6 ± 0.9	865.3 ± 0.9	857.9 ± 0.9	850.9 ± 0.9
35000 kPa	912.8 ± 1	905.1 ± 1	897.9 ± 1	890.5 ± 1	883.1 ± 1	875.9 ± 1	868.9 ± 0.9	861.6 ± 0.9	854.9 ± 0.9
40000 kPa	915.3 ± 1	907.9 ± 1	900.8 ± 1	893.3 ± 1	886.3 ± 1	879.5 ± 1	872.3 ± 1	865.1 ± 1	858.5 ± 1
50000 kPa	920.5 ± 1	913.6 ± 1	906.4 ± 1	899.4 ± 1	892.4 ± 1	885.5 ± 1	878.9 ± 1	871.5 ± 1	865.6 ± 1
60000 kPa	925.4 ± 1	918.2 ± 1	911.8 ± 1	904.9 ± 1	898.8 ± 1	891.6 ± 1	884.7 ± 1	878.2 ± 1	872 ± 1
